From ChEMBL document CHEMBL1135052, “7-Methoxyfuro[2,3-c]pyridine-4-carboxamides as PDE4 inhibitors: a potential treatment for asthma” (Bioorg Med Chem Lett, 2002) come the findings set out here.

In data set [1] the target is T1, Phosphodiesterase 3 (Homo sapiens) (UniProt Q14432+Q13370). Kind of data set: Inhibition of human platelet phosphodiesterase 3 at 1 uM.
Data set [2] has as its target T2, Phosphodiesterase 4 (Homo sapiens, UniProt P27815+Q08499+Q07343+Q08493). Briefly: (§1) Inhibition of human phosphodiesterase 4 from U937 cells. It is filed as cell-based. The following applies: u-937.
Data set [3] addresses T1, Phosphodiesterase 3 (Homo sapiens). Briefly: Inhibition of human platelet Phosphodiesterase 3 at 20 uM (inactive).
Data set [4] in a line: AUC tested in guinea pig when 3 mg/kg dose was given perorally. The format is ADME, organism-based, Cavia porcellus, Plasma. Details: dose 3 mg/kg, route oral. As to conditions: in vivo, po.
Data set [5] in a line: Bioavailability in guinea pig was tested. The format is ADME, organism-based, Cavia porcellus. The following applies: in vivo, read-out: Bioavailabiility.
A short description of data set [6]: Maximum plsma drug concentration in guinea pig when 3 mg/kg dose was given perorally. The format is ADME, organism-based, Cavia porcellus. Details: dose 3 mg/kg, route oral. As to conditions: plasma, po.
The target in data set [7] is T1, Phosphodiesterase 3 (Homo sapiens). Briefly: Inhibition of human platelet Phosphodiesterase 3 at 20 uM.
Data set [8] addresses T2, Phosphodiesterase 4. Described as §1. It is filed as cell-based. The following applies: U-937, concentration not given here.
In data set [9] the target is T1, Phosphodiesterase 3 (Homo sapiens). Kind of data set: Inhibition of human platelet Phosphodiesterase 3 at 1 uM (inactive).
Data set [10] addresses Phosphodiesterase 4 (Rattus norvegicus) (UniProt P14270+P14646+P14644+P54748). Kind of data set: Inhibition of rolipram binding to rat brain at 1 uM. The format is tissue-based.

Each structure is given as a SMILES string. Calls of active or inactive are those of the source.

What is called inhibition is the percentage by which the read-out fell short of the control. By IC50 is commonly meant the point on the concentration scale where inhibition reaches its midpoint. Consider `CCc1cc2c(C(=O)Nc3cc[n+]([O-])cc3Cl)cnc(OC)c2o1`, for which the inhibition in data set [1] was 39%. The concentration for half-maximal inhibition (IC50) in data set [2] came to 0.12 µM.

Regarding `COc1ncc(C(=O)Nc2c(Cl)c[n+]([O-])cc2Cl)c2cc(C3(OC)CCN(C(=O)OC(C)(C)C)CC3)oc12`, the inhibition result in data set [3] was “inactive”. Moreover, in data set [2], the half-inhibitory concentration (IC50) is 0.048 µM. By Cmax is commonly meant the peak of the concentration-time curve. On to `CCc1cc2c(C(=O)Nc3c(Cl)c[n+]([O-])cc3Cl)cnc(OC)c2o1`, for which the AUC in data set [4] came to 4942 ng/mL. Also, in [5], the bioavailability amounted to 54%. The same compound registered a Cmax in [6] of 1410 ng/mL. This compound also gave an inhibition in data set [7] of 32%. Besides, the IC50 in [2] was 0.014 µM. The compound `CCc1cc2c(C(=O)Nc3cc[n+]([O-])cc3OC)cnc(OC)c2o1` had an inhibition in data set [8] of 21%. Regarding `CCc1cc2c(C(=O)Nc3c(C)cc(C#N)cc3Cl)cnc(OC)c2o1`, in data set [2], the concentration for half-maximal inhibition (IC50) stood at 0.23 µM. On the same count and under the same terms, for `CCc1cc2c(C(=O)Nc3c(F)cccc3F)cnc(OC)c2o1` the value was 0.066 µM; for `COc1ncc(C(=O)Nc2c(Cl)c[n+]([O-])cc2Cl)c2cc(-c3cccnc3)oc12`, 0.062 µM; for `CCc1cc2c(C(=O)Nc3cc[n+]([O-])cc3C)cnc(OC)c2o1`, 0.12 µM. Compound `COc1ncc(C(=O)Nc2c(Cl)c[n+]([O-])cc2Cl)c2cc(C3CCOC3)oc12` (centres undefined) yielded an IC50 in data set [2] of 0.023 µM. In the case of `CCc1cc2c(C(=O)Nc3ncncc3C#N)cnc(OC)c2o1`, the inhibition entry in data set [9] is “inactive”. For the same compound, in [2], the IC50 is 0.14 µM. On to `CCc1cc2c(C(=O)Nc3c(Cl)c[n+]([O-])cc3Cl)cnc(OC(F)F)c2o1`, for which the IC50 in data set [2] is 0.0037 µM.

On to `COc1ncc(C(=O)Nc2c(Cl)c[n+]([O-])cc2Cl)c2cc(C3CCOCC3)oc12`, for which, in [7], the inhibition was 3%. In data set [2], the IC50 came out at 0.047 µM. Take `CCc1cc2c(C(=O)Nc3c(Cl)c[n+]([O-])cc3Cl)cnc(O)c2o1`: the inhibition came out at 22% in data set [8] and 61% in data set [10].

For the compound `COCc1cc2c(C(=O)Nc3c(Cl)c[n+]([O-])cc3Cl)cnc(OC)c2o1`, in data set [3], the inhibition result is “inactive”. For the same compound, the IC50 in data set [2] worked out at 0.047 µM.
